Our source for the melting point values is patent US7186830B2, “Tricyclic 2-pyrimidone compounds useful as HIV reverse transcriptase inhibitors” (Bristol-Myers Squibb Company, priority 2002, dated 2007).

Broadly, the melting point is the temperature, or range, at which the solid turns liquid. Consider `Cc1nc2c(c(=O)[nH]1)Nc1ccc(C#N)cc1C2(COC(C)C)C(F)(F)F` (centres unmarked) [Example 7, 8-Cyano-10-(isopropoxymethyl)-2-methyl-10-(trifluoromethyl)-5,10-dihydropyrimido[5,4-b]quinolin-4(3H)-one], for which the melting point was 277.3 to 278.1 °C (dec.).
For `N#Cc1ccc2c(c1)C(CCC1CC1)(C(F)(F)F)c1nc[nH]c(=O)c1N2` (centres unmarked) [Example 9, 8-Cyano-10-(2-cyclopropylethyl)-10-(trifluoromethyl)-5,10-dihydropyrimido[5,4-b]quinolin-4(3H)-one], the melting point is > 280 °C.
